Results on 12 molecules are retold here after patent publication US11041000B2, “Peptide inhibitors of interleukin-23 receptor and their use to treat inflammatory diseases” (priority 2019, dated 2021).

Bridge positions count the residues as written; N and C are the ends. Square brackets hold non-standard residues; d marks the D form. Peptide text beside a SMILES is read from it. Trp(7-Me) = Cc1cccc2c(C[C@H](N)C(=O)O)c[nH]c12; Trp(2-Me) = Cc1[nH]c2ccccc2c1C[C@H](N)C(=O)O; 2Nal = N[C@@H](Cc1ccc2ccccc2c1)C(=O)O; AEF = NCCOc1ccc(C[C@H](N)C(=O)O)cc1; Cit = NC(=O)NCCC[C@H](N)C(=O)O; αMeL = CC(C)C[C@](C)(N)C(=O)O; Pen = CC(C)(S)[C@H](N)C(=O)O; αMeK = C[C@](N)(CCCCN)C(=O)O; βAla = NCCC(=O)O Some results are limits rather than exact numbers.

Series [1] can be described thus: Stability in cynomolgus monkey fecal homogenate. Type of series: in vitro ADME. The note with it: 20% fecal homogenate (supernatant), pH 6.8, 20% cynomolgus monkey fecal homogenate, anaerobic, 37° C., read-out: t½: Monkey Feces anaerobic (converted). As for the experimental part: (§1) Centrifuged the homogenate at 2800×g for 15 min. The supernatant is taken out and used for incubations. […] The final test compound concentration was 20 μM.

In series [2] the target is IL-23R-expressing DB cells (Homo sapiens, UniProt Q5VWK5). In words: DB cells IL23R pSTAT3 cell assay (pStat3HTRF). It counts as cell-based. Particulars: DB cells stimulated with IL-23 0.5 nM, 30 minutes, phospho-STAT3 in cell lysates; read-out: pStat3 HTRF. An excerpt: Human ELISA indicates the IL23-IL23R competitive binding assay described below, Rat ELISA indicates the rat IL-23R competitive binding ELISA assay described below, and pStat3HTRF indicates the DB cells IL-23R pSTAT3 cell assay described below. The peptides depicted in Table E1 are cyclized via a disulfide bridge formed between two Pen residues in these peptides. The peptides depicted in Table E2 are cyclized via a thioether bond between the indicated amino acid residues. Table E2 provides an illustrative structure depicting thioether cyclization, which is indicated in the table by the term “cyclo,” with the cyclic region bracketed immediately following the term “cyclo.” For certain peptides, the residue Abu is present where indicated, whereas in other embodiments, e.g., those related to the non-cyclized form, the Abu may be referred to as a hSer(Cl) or homoSer residue. The petpides depicted in Table E3 are cyclized via a disulfide bridge formed between two Pen residues or a thioether bond between Abu and Cys.
IL-23 plays a central role in supporting and maintaining Th17 differentiation in vivo. This process is thought to be mediated primarily through the Signal Transducer and Activator of Transcription 3 (STAT3), with phosphorylation of STAT3 (to yield pSTAT3) leading to upregulation of RORC and pro-inflammatory IL-17. This cell assay examines the levels of pSTAT3 in IL-23R-expressing DB cells when stimulated with IL-23 in the presence of test compounds. Serial dilutions of test peptides and IL-23 (Humanzyme #HZ-1261) at a final concentration of 0.5 nM, were added to each well in a 96 well tissue culture plate (Corning #CLS3894). DB cells (ATCC #CRL-2289), cultured in RPMI-1640 medium (Thermo Scientific #11875093) supplemented with 10% FBS, were added at 5×10E5 cells/well and incubated for 30 minutes at 37° C. in a 5% CO2 humidified incubator. Changes in phospho-STAT3 levels in the cell lysates were detected using the Cisbio HTRF pSTAT3 (Tyr705) Cellular Assay Kit (Cisbio #62AT3PEH), according to manufacturer's Two Plate Assay protocol.

Series [3] can be described thus: Stability in human fecal homogenate. It counts as in vitro ADME. The note with it: 20% fecal homogenate (supernatant), pH 6.8, 20% human fecal homogenate, anaerobic, 37° C., read-out: t½: Human Feces anaerobic (converted). As for the experimental part: as §1
Series [4] is described as follows: Stability in rat plasma. Type of series: in vitro ADME. The note with it: both sexes, SD rat plasma, EDTA, 37° C., read-out: t½: Rat Plasma EDTA (converted).
The nature of series [5]: Stability in simulated intestinal fluid (SIF). It counts as in vitro ADME. Particulars: simulated intestinal fluid with pancreatin, pH 6.8, 37° C., matrix is 100 fold dilution of standard SIF concentration; for SIF t½: 20 μM; for half-life at 20 μM: read-out: SIF t½ (converted).

Chain of IL-23R-expressing DB cells (Q5VWK5 24-629 limits assumed): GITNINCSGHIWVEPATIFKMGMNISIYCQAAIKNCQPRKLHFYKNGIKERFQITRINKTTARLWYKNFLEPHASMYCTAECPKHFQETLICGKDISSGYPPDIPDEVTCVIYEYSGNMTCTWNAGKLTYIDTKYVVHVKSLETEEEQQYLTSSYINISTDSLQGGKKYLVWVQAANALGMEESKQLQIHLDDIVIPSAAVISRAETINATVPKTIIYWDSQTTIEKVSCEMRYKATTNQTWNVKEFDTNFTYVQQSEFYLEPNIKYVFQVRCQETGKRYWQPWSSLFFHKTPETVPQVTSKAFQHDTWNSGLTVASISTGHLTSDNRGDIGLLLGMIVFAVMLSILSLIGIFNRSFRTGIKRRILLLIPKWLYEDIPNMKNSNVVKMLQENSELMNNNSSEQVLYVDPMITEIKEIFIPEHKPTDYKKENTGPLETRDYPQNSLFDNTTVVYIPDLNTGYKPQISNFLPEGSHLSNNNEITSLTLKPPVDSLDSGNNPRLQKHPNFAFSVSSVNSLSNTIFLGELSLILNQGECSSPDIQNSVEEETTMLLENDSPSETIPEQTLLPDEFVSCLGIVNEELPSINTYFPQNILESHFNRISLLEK

For `CC(=O)NCCCC[C@H](NC(=O)[C@](C)(CCCCN)NC(=O)[C@H](Cc1ccc2ccccc2c1)NC(=O)[C@H](Cc1ccc(OCCN)cc1)NC(=O)[C@H]1NC(=O)[C@H](CCC(N)=O)NC(=O)[C@H](Cc2c[nH]c3c(C)cccc23)NC(=O)[C@H]([C@@H](C)O)NC(=O)[C@H](CC(N)=O)NC(=O)[C@@H](NC(C)=O)C(C)(C)SSC1(C)C)C(=O)N[C@@H](CC(N)=O)C(=O)NCCC(N)=O` [compound 202], the half-life at 20 μM in series [1] is 10 h. In series [2], the IC50 is 1.1 nM.

`CC(=O)NCCCC[C@H](NC(=O)[C@](C)(CC(C)C)NC(=O)[C@H](Cc1ccc2ccccc2c1)NC(=O)[C@H](Cc1ccc(OCCN)cc1)NC(=O)[C@H]1NC(=O)[C@H](CCC(N)=O)NC(=O)[C@H](Cc2c[nH]c3c(C)cccc23)NC(=O)[C@H]([C@@H](C)O)NC(=O)[C@H](CC(N)=O)NC(=O)[C@@H](NC(C)=O)C(C)(C)SSC1(C)C)C(=O)N1CCC[C@H]1C(=O)NCCC(N)=O` [compound 211]: the half-life at 20 μM in series [1] (cynomolgus monkey) was over 24 h; in series [3] it was 10 h. Besides, the IC50 in series [2] stood at 178 nM.

For `CC(=O)NCCCC[C@H](NC(=O)[C@](C)(CC(C)C)NC(=O)[C@H](Cc1ccc2ccccc2c1)NC(=O)[C@H](Cc1ccc(OCCN)cc1)NC(=O)[C@H]1NC(=O)[C@H](CCC(N)=O)NC(=O)[C@H](Cc2c[nH]c3c(C)cccc23)NC(=O)[C@H]([C@@H](C)O)NC(=O)[C@H](CC(N)=O)NC(=O)[C@@H](NC(C)=O)C(C)(C)SSC1(C)C)C(=O)N[C@@H](C(=O)NCCC(N)=O)[C@H](C)O` [compound 218], the half-life at 20 μM was 1 h in series [4], over 24 h in series [1] (cynomolgus monkey) and over 24 h in series [3]. The IC50 in series [2] was 11 nM.

In the case of `CC(=O)NCCCC[C@H](NC(=O)[C@](C)(CC(C)C)NC(=O)[C@H](Cc1ccc2ccccc2c1)NC(=O)[C@H](Cc1ccc(OCCN)cc1)NC(=O)[C@H]1NC(=O)[C@H](CCCNC(N)=O)NC(=O)[C@H](Cc2c[nH]c3c(C)cccc23)NC(=O)[C@H]([C@@H](C)O)NC(=O)[C@H](CC(N)=O)NC(=O)[C@@H](NC(C)=O)C(C)(C)SSC1(C)C)C(=O)N[C@@H](CC(N)=O)C(=O)NCCC(N)=O` [compound 227] (Ac-[Pen]NT[Trp(7-Me)][Cit][Pen][AEF][2Nal][αMeL]K(Ac)N[βAla]-NH2; disulfide 1-6), the half-life at 20 μM in series [1] (cynomolgus monkey) and in series [3] was over 24 h in each case. Also, in series [2], the IC50 stood at 0.702 nM.

Consider `CC(=O)NCCCC[C@H](NC(=O)[C@](C)(CCCCN)NC(=O)[C@H](Cc1ccc2ccccc2c1)NC(=O)[C@H](Cc1ccc(OCCN)cc1)NC(=O)[C@H]1NC(=O)[C@H](CCC(N)=O)NC(=O)[C@H](Cc2c[nH]c3c(C)cccc23)NC(=O)[C@H]([C@@H](C)O)NC(=O)[C@H](CC(N)=O)NC(=O)[C@@H](NC(C)=O)C(C)(C)SSC1(C)C)C(=O)N[C@@H](CC(N)=O)C(=O)NCCC(N)=O` [compound 267], for which the half-life at 20 μM in series [4] and in series [3] was over 24 h each time. Besides, in series [2], the IC50 is 0.506 nM.

Consider `CC(=O)NCCCC[C@H](NC(=O)C1(NC(=O)[C@H](Cc2ccc3ccccc3c2)NC(=O)[C@H](Cc2ccc(OCCN)cc2)NC(=O)[C@H]2NC(=O)[C@H](CCC(N)=O)NC(=O)[C@H](Cc3c[nH]c4c(C)cccc34)NC(=O)[C@H]([C@@H](C)O)NC(=O)[C@H](CC(N)=O)NC(=O)[C@@H](NC(C)=O)C(C)(C)SSC2(C)C)CCNCC1)C(=O)N[C@@H](CC(N)=O)C(=O)NCCC(N)=O` [compound 275], for which the half-life at 20 μM in series [4] is over 24 h; in series [1] (cynomolgus monkey), 8 h; in series [3] it was over 24 h. In addition, the IC50 in series [2] amounted to 2.17 nM.

`CC(=O)NCCCC[C@@H]1NC(=O)[C@H](Cc2c[nH]c3c(C)cccc23)NC(=O)[C@H]([C@@H](C)O)NC(=O)[C@H](CC(N)=O)NC(=O)[C@@H](NC(C)=O)C(C)(C)SSC(C)(C)[C@@H](C(=O)N[C@@H](Cc2ccc(OCCN)cc2)C(=O)N[C@@H](Cc2c(C)[nH]c3ccccc23)C(=O)N[C@@](C)(CCCCN)C(=O)N[C@@H](CCCCNC(C)=O)C(=O)N[C@@H](CC(N)=O)C(=O)N[C@H](CCCCN)C(N)=O)NC1=O` [compound 353] (Ac-[Pen]NT[Trp(7-Me)]K(Ac)[Pen][AEF][Trp(2-Me)][αMeK]K(Ac)N[dK]-NH2; disulfide 1-6): the half-life at 20 μM in series [4], in series [1] and in series [3] was over 24 h throughout. Also, the “SIF t½” value in series [5] was 24 h.

As to `CC(=O)NCCCC[C@@H]1NC(=O)[C@H](Cc2c[nH]c3c(C)cccc23)NC(=O)[C@H]([C@@H](C)O)NC(=O)[C@H](CC(N)=O)NC(=O)[C@@H](NC(C)=O)C(C)(C)SSC(C)(C)[C@@H](C(=O)N[C@@H](Cc2ccc(OCCN)cc2)C(=O)N[C@@H](Cc2ccc3ccccc3c2)C(=O)N[C@@](C)(CC(C)C)C(=O)N[C@@H](CCCCNC(C)=O)C(=O)N[C@@H](CC(N)=O)C(=O)N[C@H](CC(N)=O)C(N)=O)NC1=O` [compound 354], the half-life at 20 μM is 7 h in series [4], over 24 h in series [1], 11 h in series [5] and over 24 h in series [3].

In the case of `CC(=O)NCCCC[C@@H]1NC(=O)[C@H](Cc2c[nH]c3c(C)cccc23)NC(=O)[C@H]([C@@H](C)O)NC(=O)[C@H](CC(N)=O)NC(=O)[C@@H](NC(C)=O)C(C)(C)SSC(C)(C)[C@@H](C(=O)N[C@@H](Cc2ccc(OCCN)cc2)C(=O)N[C@@H](Cc2ccc3ccccc3c2)C(=O)N[C@@](C)(CCCCN)C(=O)N[C@@H](CCCCNC(=O)[C@H](C)N)C(=O)N[C@@H](CC(N)=O)C(=O)N[C@H](CC(C)C)C(N)=O)NC1=O` [compound 355], the half-life at 20 μM was over 24 h in series [4], over 24 h in series [1], 8 h in series [5] and 12 h in series [3].

In the case of `CC(=O)NCCCC[C@@H]1NC(=O)[C@H](Cc2c[nH]c3c(C)cccc23)NC(=O)[C@H]([C@@H](C)O)NC(=O)[C@H](CC(N)=O)NC(=O)[C@@H](NC(C)=O)C(C)(C)SSC(C)(C)[C@@H](C(=O)N[C@@H](Cc2ccc(OCCN)cc2)C(=O)N[C@@H](Cc2ccc3ccccc3c2)C(=O)N[C@@](C)(CCCCN)C(=O)N[C@@H](CCCCNC(=O)CC(C)C)C(=O)N[C@@H](CC(N)=O)C(=O)N[C@H](CC(C)C)C(N)=O)NC1=O` [compound 356], the half-life at 20 μM is over 24 h in series [4], over 24 h in series [1], 10 h in series [5] and over 24 h in series [3].

`CC(=O)NCCCC[C@@H]1NC(=O)[C@H](Cc2c[nH]c3c(C)cccc23)NC(=O)[C@H]([C@@H](C)O)NC(=O)[C@H](CC(N)=O)NC(=O)[C@@H](NC(C)=O)C(C)(C)SSC(C)(C)[C@@H](C(=O)N[C@@H](Cc2ccc(OCCN)cc2)C(=O)N[C@@H](Cc2ccc3ccccc3c2)C(=O)N[C@@](C)(CCCCN)C(=O)N[C@@H](CCCCNC(=O)CC(F)(F)F)C(=O)N[C@@H](CC(N)=O)C(=O)N[C@H](CC(C)C)C(N)=O)NC1=O` [compound 360]: the half-life at 20 μM in series [4], in series [1] and in series [3] was over 24 h throughout. Moreover, in series [5], the “SIF t½” value was 24 h.

`CCCCC(=O)NCCCC[C@H](NC(=O)[C@](C)(CCCCN)NC(=O)[C@H](Cc1ccc2ccccc2c1)NC(=O)[C@H](Cc1ccc(OCCN)cc1)NC(=O)[C@H]1NC(=O)[C@H](CCCCNC(C)=O)NC(=O)[C@H](Cc2c[nH]c3c(C)cccc23)NC(=O)[C@H]([C@@H](C)O)NC(=O)[C@H](CC(N)=O)NC(=O)[C@@H](NC(C)=O)C(C)(C)SSC1(C)C)C(=O)N[C@@H](CC(N)=O)C(=O)N[C@H](CC(C)C)C(N)=O` [compound 361]: the half-life at 20 μM in series [4], in series [1] and in series [3] was over 24 h each time. Moreover, the “SIF t½” value in series [5] is 24 h.
